The text below walks through data of paper PMC8569681, “New Pyrimidine and Pyridine Derivatives as Multitarget Cholinesterase Inhibitors: Design, Synthesis, and In Vitro and In Cellulo Evaluation” (ACS Chemical Neuroscience, 2021).

The target in test [1] is T1, equine BChE (eqBChE) (Equus caballus, UniProt P81908).
T1 construct: purchased Sigma-Aldrich (Milan, Italy)
Kind of test: Percent inhibition of eqBChE, Ellman's spectrophotometric method. The conditions noted are these: for inhibition at 0.9 µM: [I] 900 nM; for % inhibition vs eqBChE ± SD (900 uM): 900 nM. It is filed as biochemical. As to the method: On the synthesized compounds, enzymatic inhibition studies were carried out toward Electrophorus electricus AChE (EeAChE) and equine BChE (eqBChE) according to Ellman’s spectrophotometric method.[25]
(§1) All other chemical and biological reagents and solvents used were of the highest analytical, commercially available grade. The water, utilized for the preparation of the phosphate buffer and of the compound solutions, was distilled and filtered on nylon membrane filters with a 0.2 μm pore size with the Millipore Filtration apparatus before each use. Micropipettes Labmate (BRAND Dig. 10–100 μL; Dig. 100–1000 μL; Dig. 0.1–2 μL) and Transferpette (HIGH TECH LAB LM200: 20–200 μL; LM5000: 1000–5000 μL) were used to collect the samples. The assays were carried out by a double beam UV–vis Lambda 40 Perkin Elmer spectrophotometer using optical polystyrene cuvettes (10 × 10 × 45 mm, 340–800 nm optical transparency); each measure was repeated at least in triplicate. […] The spectrophotometric method of Ellman[25] with minor modifications was used to evaluate the inhibition of ChEs. […] EeAChE and eqBChE were periodically tested to evaluate the effective enzymatic activity.
(§2) For all the synthesized compounds, the percentages of inhibition toward AChE of Electrophorus electricus (EeAChE) and equine BChE (eqBChE) were evaluated.
Three milliliters of a solution in 0.1 M phosphate buffer (pH = 7.4) containing DTNB (0.25 mM) and EeAChE (0.083 UmL^–1) or eqBChE (0.083 UmL^–1) was placed in a polystyrene cuvette of 1.0 cm path length; 1 μL of a solution in DMSO of the tested compound was added to obtain a cuvette concentration range of 9–0.09 μM. With this solution, the blank was made. […] Each experiment was repeated at least in triplicate.

In test [2] the target is T2, Electrophorus electricus AChE (EeAChE) (Electrophorus electricus, UniProt O42275).
T2 construct: purchased Sigma-Aldrich (Milan, Italy)
The test can be described thus: Percent inhibition of EeAChE, Ellman's spectrophotometric method. It is filed as biochemical. The conditions noted are these: for inhibition at 90 µM: read-out: % inhibition vs EeAChE ± SD (90 uM), 90 uM; for inhibition at 900 µM: read-out: % inhibition vs EeAChE ± SD (900 uM), 900 uM; for inhibition at 0.9 µM: read-out: % inhibition vs EeAChE ± SD, [I] 900 nM. How it is done: as §1, §2
Three milliliters of a solution in 0.1 M phosphate buffer (pH = 7.4) containing DTNB (0.25 mM) and EeAChE (0.083 UmL^–1) or eqBChE (0.083 UmL^–1) was placed in a polystyrene cuvette of 1.0 cm path length; 1 μL of a […] With this solution, the blank was made. […] Each experiment was repeated at least in triplicate.

Where [3] appears, read: 0.0833 U/mL enzyme, 100 μM acetylthiocholine, read-out: % inhibition vs eqBChE ± SD.
[4] abbreviates: [I] 9 μM, 0.0833 U/mL enzyme, 100 μM acetylthiocholine, read-out: % inhibition vs eqBChE ± SD.
Setting [5] is: read-out: % inhibition vs eqBChE ± SD (9 uM), 9 uM, supplement csv.
Setting [6] is: read-out: % inhibition vs EeAChE ± SD (9 uM), 9 uM, supplement csv.
Setting [7] is: read-out: % inhibition vs EeAChE ± SD, [I] 9 μM, 0.0833 U/mL enzyme, 100 μM acetylthiocholine.
The mark [8] stands for this setting: 0.0833 U/mL enzyme, 100 μM acetylthiocholine.

Like-named read-outs stand apart in the source and are kept apart here.

T1 sequence (P81908 whole entry): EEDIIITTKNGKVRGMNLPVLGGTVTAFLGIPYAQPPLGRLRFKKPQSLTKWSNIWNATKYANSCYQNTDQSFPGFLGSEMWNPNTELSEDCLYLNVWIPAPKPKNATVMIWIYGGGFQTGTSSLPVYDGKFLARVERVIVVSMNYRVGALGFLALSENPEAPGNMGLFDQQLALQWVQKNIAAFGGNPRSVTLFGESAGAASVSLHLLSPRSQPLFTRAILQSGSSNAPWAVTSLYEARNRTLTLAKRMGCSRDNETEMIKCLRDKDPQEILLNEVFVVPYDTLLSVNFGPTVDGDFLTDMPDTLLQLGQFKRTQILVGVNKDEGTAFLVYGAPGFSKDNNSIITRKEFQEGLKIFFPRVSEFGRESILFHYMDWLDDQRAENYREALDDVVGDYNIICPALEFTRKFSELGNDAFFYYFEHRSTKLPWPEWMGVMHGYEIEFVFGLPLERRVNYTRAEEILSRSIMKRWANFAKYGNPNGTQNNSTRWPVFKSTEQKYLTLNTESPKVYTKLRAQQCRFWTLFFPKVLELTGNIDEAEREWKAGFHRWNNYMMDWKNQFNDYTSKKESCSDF
T2 sequence (O42275 24-633): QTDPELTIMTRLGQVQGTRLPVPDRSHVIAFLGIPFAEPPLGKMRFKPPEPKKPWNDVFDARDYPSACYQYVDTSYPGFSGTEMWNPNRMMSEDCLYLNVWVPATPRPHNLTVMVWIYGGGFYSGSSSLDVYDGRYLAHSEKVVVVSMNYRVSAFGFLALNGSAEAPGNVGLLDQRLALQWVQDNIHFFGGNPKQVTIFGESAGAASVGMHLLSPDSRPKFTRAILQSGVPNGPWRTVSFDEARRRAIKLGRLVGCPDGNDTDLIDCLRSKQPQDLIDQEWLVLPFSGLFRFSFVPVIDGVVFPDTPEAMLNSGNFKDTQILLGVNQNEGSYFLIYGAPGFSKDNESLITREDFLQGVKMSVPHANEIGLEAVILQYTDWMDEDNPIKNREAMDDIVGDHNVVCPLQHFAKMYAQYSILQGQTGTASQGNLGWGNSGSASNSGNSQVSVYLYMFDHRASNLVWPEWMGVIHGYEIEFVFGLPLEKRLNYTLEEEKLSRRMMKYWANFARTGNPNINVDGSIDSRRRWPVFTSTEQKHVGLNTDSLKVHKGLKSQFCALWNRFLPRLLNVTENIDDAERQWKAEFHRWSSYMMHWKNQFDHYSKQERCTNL

Regarding `Clc1ccc(CNCCCCCCNc2ccccn2)cc1` [Compound 27, N^1-(4-Chlorobenzyl)-N^6-(pyridin-2-yl)hexane-1,6-diamine], the inhibition at 0.9 µM in test [1] (setting [3]) was 17.7 ± 5.2%. Also, the inhibition at 9 µM in test [1] (setting [4]) was 73.2 ± 3.6%; in test [1] (setting [5]), 17.7 ± 5.2%; in test [2] (setting [6]), 27.7 ± 4.7%; in test [2] (setting [7]), 24 to 30%. The inhibition at 90 µM in test [2] (supplement csv) is 73.2 ± 3.6%.
As to `COc1cc(CNCCCCCCNc2ccccn2)cc(OC)c1OC` [Compound 29, N^1-(Pyridin-2-yl)-N^6-(3,4,5-trimethoxybenzyl)hexane-1,6-diamine], in test [1] (setting [3]), the inhibition at 0.9 µM worked out at 19 ± 2.5%. For the same compound, the inhibition at 9 µM in test [1] (setting [4]) was 68.9 ± 4.1%; in test [1] (setting [5]), 19 ± 2.5%; in test [2] (setting [6]), 30.9 ± 1.1%; in test [2] (setting [7]), 24 to 30%. The inhibition at 90 µM in test [2] (supplement csv) came out at 68.9 ± 4.1%.
Regarding `Oc1cccc(CNCCCCCCNc2ccccn2)c1` [Compound 31, 3-(((6-(Pyridin-2-ylamino)hexyl)amino)methyl)phenol], the inhibition at 0.9 µM in test [1] (setting [3]) stood at 19.1 ± 2.2%. Moreover, the inhibition at 9 µM was 56 ± 3.8% in test [1] (setting [4]), 19.1 ± 2.2% in test [1] (setting [5]), 42.2 ± 2.2% in test [2] (setting [6]) and about 40% in test [2] (setting [7]). For the same compound, the inhibition at 90 µM in test [2] (supplement csv) worked out at 56 ± 3.8%.
For the compound `COc1ccccc1CNCCCCCCNc1ncccn1` [Compound 16, N^1-(2-Methoxybenzyl)-N^6-(pyrimidin-2-yl)hexane-1,6-diamine], the “% inhibition vs eqBChE ± SD (900 uM)” value in test [1] (supplement csv) was found to be 6.2 ± 0.4%. The results for the inhibition at 0.9 µM in test [1] (setting [3]) and in test [2] (setting [8]) were 6.2 ± 0.4% and 15.7 ± 1.1%, respectively. Besides, the inhibition at 9 µM in test [1] (setting [4]) was 43.9 ± 4.8%; in test [1] (setting [5]), 43.9 ± 4.8%; in test [2] (setting [6]), 68.3 ± 0.7%; in test [2] (setting [7]) it was 60 to 70%. Further, the inhibition at 900 µM in test [2] (supplement csv) stood at 15.7 ± 1.1%.
For the compound `Brc1ccc(CNCCCCCNc2ncccn2)cc1` [Compound 10, N^1-(4-Bromobenzyl)-N^5-(pyrimidin-2-yl)pentane-1,5-diamine], the inhibition at 9 µM turned out to be 17.1 ± 0.9% in test [1] (setting [4]), 17.1 ± 0.9% in test [1] (setting [5]), 14.5 ± 0.7% in test [2] (setting [6]) and 14.5 ± 0.7% in test [2] (setting [7]).
Consider `Brc1ccc(CNCCCCCNc2ccccn2)cc1` [Compound 24, N^1-(4-Bromobenzyl)-N^5-(pyridin-2-yl)pentane-1,5-diamine], for which the inhibition at 0.9 µM in test [1] (setting [3]) amounted to 12.1 ± 4.6%. The inhibition at 9 µM in test [1] (setting [4]) was determined as 56.4 ± 1.6%; in test [1] (setting [5]), 12.1 ± 4.6%; in test [2] (setting [6]) it was 18.2 ± 3.5%; in test [2] (setting [7]), 18.2 ± 3.5%. Further, the inhibition at 90 µM in test [2] (supplement csv) amounted to 56.4 ± 1.6%.
Regarding `Brc1ccc(CNCCCCCCNc2ncccn2)cc1` [Compound 14, N^1-(4-Bromobenzyl)-N^6-(pyrimidin-2-yl)hexane-1,6-diamine], the “% inhibition vs eqBChE ± SD (900 uM)” value in test [1] (supplement csv) came out at 6.6 ± 0.2%. Moreover, the inhibition at 0.9 µM in test [1] (setting [3]) worked out at 6.6 ± 0.2%. Besides, the inhibition at 9 µM in test [1] (setting [4]) is 38.6 ± 5.5%; in test [1] (setting [5]), 38.6 ± 5.5%; in test [2] (setting [6]), 23 ± 1.6%; in test [2] (setting [7]) it was 23 ± 1.6%.
As for `Clc1cc(CNCCCCCCNc2ccccn2)cc(Cl)n1` [Compound 33, N^1-((2,6-Dichloropyridin-4-yl)methyl)-N^6-(pyridin-2-yl)hexane-1,6-diamine], the inhibition at 0.9 µM in test [1] (setting [3]) is 13 ± 0.7%; in test [2] (setting [8]), 6.2 ± 1.1%. For the same compound, the inhibition at 9 µM was 68.3 ± 2.9% in test [1] (setting [4]), 13 ± 0.7% in test [1] (setting [5]), 40.6 ± 4.1% in test [2] (setting [6]) and about 40% in test [2] (setting [7]). Also, in test [2] (supplement csv), the inhibition at 90 µM is 68.3 ± 2.9%. In addition, in test [2] (supplement csv), the inhibition at 900 µM amounted to 6.2 ± 1.1%.
`COc1cc(CNCCCCCCNc2ncccn2)cc(OC)c1OC` [Compound 17, N^1-(Pyrimidin-2-yl)-N^6-(3,4,5-trimethoxybenzyl)hexane-1,6-diamine]: the inhibition at 9 µM in test [1] (setting [4]) is 29.4 ± 4.5%; in test [1] (setting [5]), 29.4 ± 4.5%; in test [2] (setting [6]), 16.4 ± 2.8%; in test [2] (setting [7]) it was 16.4 ± 2.8%.
Consider `COc1ccccc1CNCCCCCNc1ncccn1` [Compound 11, N^1-(2-Methoxybenzyl)-N^5-(pyrimidin-2-yl)pentane-1,5-diamine], for which the inhibition at 9 µM in test [1] (setting [4]) was 22.1 ± 1.3%; in test [1] (setting [5]), 22.1 ± 1.3%; in test [2] (setting [6]) it was 62.2 ± 0.9%; in test [2] (setting [7]) it was 60 to 70%. Further, the inhibition at 900 µM in test [2] (supplement csv) came to 14.6 ± 0.6%. In test [2] (setting [8]), the inhibition at 0.9 µM is 14.6 ± 0.6%.
As for `Clc1cc(CNCCCCCCNc2ncccn2)cc(Cl)n1` [Compound 21, N^1-((2,6-Dichloropyridin-4-yl)methyl)-N^6-(pyrimidin-2-yl)hexane-1,6-diamine], the inhibition at 9 µM came to 26.8 ± 0.4% in test [1] (setting [4]), 26.8 ± 0.4% in test [1] (setting [5]), 18.5 ± 1.8% in test [2] (setting [6]) and 18.5 ± 1.8% in test [2] (setting [7]).
On to `Clc1ccc(CNCCCCCCNc2ncccn2)cc1` [Compound 15, N^1-(4-Chlorobenzyl)-N^6-(pyrimidin-2-yl)hexane-1,6-diamine], for which the inhibition at 9 µM is 21.5 ± 1.2% in test [1] (setting [4]), 21.5 ± 1.2% in test [1] (setting [5]), 29.9 ± 1.2% in test [2] (setting [6]) and 29.9 ± 1.2% in test [2] (setting [7]).
For `Clc1cc(CNCCCCCNc2ncccn2)cc(Cl)n1` [Compound 12, N^1-((2,6-Dichloropyridin-4-yl)methyl)-N^5-(pyrimidin-2-yl)pentane-1,5-diamine], the inhibition at 9 µM in test [1] (setting [4]) was found to be 8.5 ± 1.3%; in test [1] (setting [5]) it was 8.5 ± 1.3%; in test [2] (setting [6]), 16.5 ± 2%; in test [2] (setting [7]) it was 16.5 ± 2%.
As to `Oc1cccc(CNCCCCCCNc2ccccn2)c1O` [Compound 32, 3-(((6-(Pyridin-2-ylamino)hexyl)amino)methyl)benzene-1,2-diol], the inhibition at 0.9 µM came out at 11.5 ± 2.9% in test [1] (setting [3]) and 23.9 ± 1.5% in test [2] (setting [8]). The inhibition at 9 µM is 59.8 ± 1.5% in test [1] (setting [4]), 11.5 ± 2.9% in test [1] (setting [5]), 63.9 ± 2.2% in test [2] (setting [6]) and about 60% in test [2] (setting [7]). In addition, the inhibition at 90 µM in test [2] (supplement csv) is 59.8 ± 1.5%. Further, the inhibition at 900 µM in test [2] (supplement csv) was 23.9 ± 1.5%.
